Columns and labels:
[1] = target: T1, Wee1 (Homo sapiens, UniProt P30291); assay: In vitro enzyme inhibitory activity, Wee1 kinase radiometric ([33P]-ATP) assay at Eurofins; format: biochemical; settings: in vitro enzymatic activity; 40 min at room temperature, peptide substrate 500 μM
T1 construct: Eurofins
Procedure: The compounds used for experiments were all prepared in-house, and their chemical names and structural formulas were shown in the preparation examples for each compound. The experimental tests were carried out in Eurofins, which provided the experimental results.
In the Wee1 reaction system, 20 mM Tris-HCl, pH 8.5, 0.2 mM EDTA, 500 μM polypeptide substrate ([…]) (Sequence ID No. 1), 10 mM magnesium acetate and a certain concentration of […] (intensity of about 500 cpm/pmol) were added. Addition of Mg^2+ and ATP mixed solution initiated the reaction. Incubation was performed at room temperature for 40 min and 3% phosphate buffer was added to terminate the reaction. 10 μL of the reaction solution was filtered on a continuous filter P30, and washed with 75 mM phosphate buffer three times, and washed with methanol once, 5 min for each time. After drying, the scintillation counting was used to read the values.

[2] = tested on: Human pancreatic cancer PC-07-0049 subcutaneously transplanted tumor; assay: In vivo pharmacodynamics study on human pancreatic cancer PC-07-0049 subcutaneously transplanted tumor model in nude mice; parameters: species or system BALB/c nude mice; settings: for TGI (%): PC-07-0049 tumor in BALB/c nude mice
Text: Procedures: The selected experimental animals were BALB/c nude mice (6 animals per group), 6-8 weeks old, weigh 16-21 grams.
The establishment of the Human pancreatic carcinoma PC-07-0049 model was originally derived from surgically excised clinical samples, which was defined as the P0 generation after implantation in nude mice. The implantation of the tumor tissue of P0 generation into the next generation was defined as the P1 generation. The implantation was continued in nude mice in this way. The tumor of FP3 was revived through the P2 generation. The next generation generated by the FP3 generation was defined as FP4, and so on. The tumor tissue of the FP5 generation will be used for the drug efficacy test.
The PC-07-0049 FP5 tumor tissue was cut into small pieces (20-30 mm^3) after removing the necrotic tissue and was inoculated subcutaneously on the right back of each nude mouse. When the average tumor volume reached about 193 mm^3, according to the tumor volume, the animals were divided into random groups and administered.
The experimental index was to investigate whether tumor growth was inhibited, delayed or cured. The diameters of the tumors were measured with a vernier caliper twice a week. The tumor suppression efficacy of the compound was evaluated by TGI (%) or the relative tumor proliferation rate T/C (%). TGI (%) reflects the tumor growth inhibition rate. Calculation of TGI (%): TGI (%)=[(1−(Average tumor volume at the end of a treatment group−average tumor volume at the beginning of the treatment group))/(Average tumor volume at the end of treatment in the solvent control group−the average tumor volume at the beginning of treatment in the solvent control group)]×100%.

T1 sequence (P30291 whole entry): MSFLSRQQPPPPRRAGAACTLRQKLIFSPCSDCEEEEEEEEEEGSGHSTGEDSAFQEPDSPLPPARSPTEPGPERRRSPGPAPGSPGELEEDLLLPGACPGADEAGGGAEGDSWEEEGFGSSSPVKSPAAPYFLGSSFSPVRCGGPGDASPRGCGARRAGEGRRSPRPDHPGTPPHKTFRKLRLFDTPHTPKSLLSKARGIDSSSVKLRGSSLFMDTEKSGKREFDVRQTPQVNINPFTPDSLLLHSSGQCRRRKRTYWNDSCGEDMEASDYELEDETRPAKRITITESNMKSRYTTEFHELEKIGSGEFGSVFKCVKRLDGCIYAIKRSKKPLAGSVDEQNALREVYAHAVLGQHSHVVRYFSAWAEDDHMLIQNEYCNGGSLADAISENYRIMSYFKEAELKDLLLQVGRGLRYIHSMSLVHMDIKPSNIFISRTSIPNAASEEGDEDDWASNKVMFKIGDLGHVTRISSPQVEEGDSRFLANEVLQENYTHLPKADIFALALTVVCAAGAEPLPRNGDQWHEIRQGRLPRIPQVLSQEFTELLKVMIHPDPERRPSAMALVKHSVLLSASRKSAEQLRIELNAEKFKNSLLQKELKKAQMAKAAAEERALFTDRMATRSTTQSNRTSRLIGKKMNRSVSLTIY

Row | SMILES | IC50 [1] [nM] | also measured
1 | Nc1ccn([C@@H]2O[C@H](CO)[C@@H](O)C2(F)F)c(=O)n1 [Gemcitabine, reference compound] | – | TGI (%) ([2]; gemcitabine alone, 20 mg/kg twice per week): 58%
2 | C/C1=C/CC[C@@](C)(O)c2cccc(n2)-n2c3nc(Nc4ccc(N5CCN(C)CC5)cc4)ncc3c(=O)n2C1 [Compound 1] | 130 | –

Now from value to molecule, other results behind:

Row | IC50 [1] [nM] | SMILES | also measured
3 | 110 | CN1CCN(c2ccc(Nc3ncc4c(=O)n5n(c4n3)-c3cccc(n3)[C@@](C)(O)CC/C=C(/F)C5)cc2)CC1 [Compound 4] | –
4 | 43 | CN1CCN(c2ccc(Nc3ncc4c(=O)n5n(c4n3)-c3cccc(n3)[C@](C)(O)CC/C=C(\F)C5)cc2)CC1 [Compound 5] | –
5 | 37 | CN1CCC(n2ccc3cc(Nc4ncc5c(=O)n6n(c5n4)-c4cccc(n4)[C@](C)(O)CC/C=C(/F)C6)ccc32)CC1 [Compound 2] | –
6 | 28 | CN1CCN(c2ccc(Nc3ncc4c(=O)n5n(c4n3)-c3cccc(n3)[C@](C)(O)CC/C=C(/F)C5)cc2)CC1 [Compound 3] | inhibitory effect on mouse tumor (in words) ([2]; combination of compound 3 and gemcitabine compared with gemcitabine alone, conclusion drawn from Table 2): significantly improve the inhibitory effect on mouse tumor; TGI (%) ([2]; compound 3 50 mg/kg once per day in combination with gemcitabine 20 mg/kg twice per week): 102%

From patent US12180184B2, “Pyrimidopyrazolone derivative as Wee1 inhibitor and use thereof” (Wuxi Biocity Biopharmaceutics Co., Ltd., priority 2018, dated 2024)
